Test [1] addresses T1, α-1A adrenoreceptor (rat vas deferens) (Rattus norvegicus, UniProt P43140).
T1 construct: from tissue; host or cells: rat vas deferens
T1 sequence (P43140 1-466): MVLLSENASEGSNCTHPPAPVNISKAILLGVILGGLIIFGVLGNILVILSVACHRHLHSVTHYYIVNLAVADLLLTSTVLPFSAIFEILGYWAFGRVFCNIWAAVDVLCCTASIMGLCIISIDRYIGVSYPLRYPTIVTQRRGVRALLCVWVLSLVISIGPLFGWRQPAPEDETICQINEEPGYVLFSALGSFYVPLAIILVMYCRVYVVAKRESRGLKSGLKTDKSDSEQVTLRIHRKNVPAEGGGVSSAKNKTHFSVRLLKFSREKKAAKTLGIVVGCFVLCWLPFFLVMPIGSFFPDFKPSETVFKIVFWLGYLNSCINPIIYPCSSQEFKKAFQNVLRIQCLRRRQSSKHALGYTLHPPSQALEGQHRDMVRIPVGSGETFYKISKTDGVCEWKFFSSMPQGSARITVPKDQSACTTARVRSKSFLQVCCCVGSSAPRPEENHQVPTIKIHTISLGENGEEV
Put plainly: Functional antagonism: inhibition of phenylephrine-induced contraction of rat vas deferens. It counts as cell-based. From the text:
(§1) Functional assays indicative of pharmacologically defined α-1 adrenoreceptors were used to further characterize compounds. Inhibition of phenylephrine (PE)-induced contraction of canine prostate smooth muscle can be correlated with α-1A adrenoreceptor activation. […] For each of these models, agonist dose response curves were repeated against increasing concentrations of test agent to derive a Schild plot [log ([…]) against log (molarity of test agent)] to determine the pA2.

Test [2] deals with T2, α-1B adrenoreceptor (rat spleen) (Rattus norvegicus, UniProt P15823).
T2 construct: from tissue; host or cells: rat spleen
T2 sequence (P15823 1-515): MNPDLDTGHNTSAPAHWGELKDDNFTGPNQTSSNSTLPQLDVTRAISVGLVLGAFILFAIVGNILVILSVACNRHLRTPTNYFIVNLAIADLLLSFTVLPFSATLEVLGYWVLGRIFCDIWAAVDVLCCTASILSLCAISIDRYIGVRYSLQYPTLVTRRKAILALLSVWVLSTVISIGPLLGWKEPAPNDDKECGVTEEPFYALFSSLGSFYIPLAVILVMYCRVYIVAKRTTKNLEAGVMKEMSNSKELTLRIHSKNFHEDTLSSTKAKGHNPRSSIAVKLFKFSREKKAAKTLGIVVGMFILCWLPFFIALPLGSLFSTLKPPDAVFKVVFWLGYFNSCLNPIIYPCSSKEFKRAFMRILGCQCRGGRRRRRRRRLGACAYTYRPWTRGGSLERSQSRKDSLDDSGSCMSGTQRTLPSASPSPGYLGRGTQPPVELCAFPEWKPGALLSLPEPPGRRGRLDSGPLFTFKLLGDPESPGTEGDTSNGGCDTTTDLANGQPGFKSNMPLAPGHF
Put plainly: Functional antagonism: inhibition of phenylephrine-induced contraction of rat spleen. The test is classed as cell-based.
Text: as §1

Counter-ions that a name gives are not always drawn.

With `COc1cccc2c1[C@@H]1CCN(CCCCn3c(=O)[nH]c4c(sc5ccccc54)c3=O)C[C@H]1CO2` (relative stereo) [Example 87, 3-[4-((±)-trans-10-Methoxy-1,3,4,4a,5,10b-hexahydro-2H-[1]-benzopyrano[3,4-c]pyrido-3-yl)butyl]-[1]-benzthieno[3,2-d]pyrimidine-2,4(1H,3H)-dione hydrochloride], the results for the antagonist dissociation constant (Kb) in test [1] and in test [2] were 2.14 nM and 72.4 nM, respectively.

As for `COc1cccc2c1[C@@H]1CCN(CCCCn3c(=O)[nH]c4c(sc5cccnc54)c3=O)C[C@H]1CO2` (relative stereo) [Example 88, 3-[4-((±)-trans-10-Methoxy-1,3,4,4a,5,10b-hexahydro-2H-[1]-benzopyrano[3,4-c]pyrido-3-yl)butyl]-pyrido[2',3':4,5]thieno[3,2-d]pyrimidine-2,4(1H,3H)-dione hydrochloride], the Kb in test [1] was 1.82 nM; in test [2], 72.4 nM.

As to `COc1ccc2c(n1)sc1c(=O)n(CCCCN3C[C@@H]4COc5cccc(OC)c5[C@@H]4C3)c(=O)[nH]c12` [Example 33, hydrochloride], in test [1] (rat vas deferens, phenylephrine-induced contraction, Schild plot), the “In Vitro Characterization (pA2) Rat Vas” value was found to be 9.02. In test [2] (rat spleen, phenylephrine-induced contraction, Schild plot), the “In Vitro Characterization (pA2) Rat Spleen” value was determined as 7.83.

The term Kb denotes the equilibrium dissociation constant of an antagonist, usually derived from a functional assay.
